Measured values reported in US20230142274A1 (SIMCERE PHARMACEUTICAL CO., LTD., priority 2020, published 2023).
Where two headings read alike, the source gives them in different places.

Experiments:
[1] = Pharmacokinetic experiment in mouse; type: in vivo; settings: female CB17-SCID mice; for half-life: mouse, plasma, read-out: Drug Elimination Half-life (converted)
From the text: CB17-SCID mice were purchased from Beijing Vital River Laboratory Animal Technology Co., Ltd.
DMSO, HP-β-CD (hydroxypropyl-β-cyclodextrin), PEG400 (polyethylene glycol 400), and Vitamin E TPGS (D-α-tocopherol polyethylene glycol 1000 succinate) were purchased from Sigma.
Six female CB17-SCID mice (20 g to 30 g, aged 4 to 6 weeks) were divided randomly into two groups, with 3 mice in each group. In Group 1, the compound in a vehicle of an aqueous solution containing 5% dimethyl sulfoxide and 95% hydroxypropyl-β-cyclodextrin (10%, w/v) was administered by intravenous injection via tail vein. In Group 2, a corresponding dose of the compound in a vehicle of an aqueous solution containing 30% polyethylene glycol 400 and 70% D-α-tocopherol polyethylene glycol 1000 succinate (10%, w/v) was orally administered. The animals were fed normally with food and water before experiment. The mice in each group underwent intravenous blood collection before administration and at 0.083 h (intravenous injection group only), 0.25 h, 0.5 h, 1 h, 2 h, 4 h, 6 h, 8 h, and 24 h after administration. The collected whole blood samples were placed in K2EDTA anticoagulation tubes and centrifuged for 5 min (4000 rpm, 4° C.) to collect the plasma for testing.
10 μL of the mouse plasma sample was taken, and 150 μL of acetonitrile solvent (containing the internal standard compound) was added to precipitate protein. After the resultant was vortexed for 0.5 min and centrifuged (4700 rpm, 4° C.) for 15 min, the supernatant was subjected to 2-fold dilution with water containing 0.05% (v/v) FA and was then subjected to quantitative measurement in LC-MS/MS system (AB Sciex Triple Quad 6500+). A calibration standard curve was prepared in CB17-SCID mouse plasma along with quality control samples to determine the plasma concentration. As for a 10× diluted sample, 2 μL of sample was taken and 18 μL of blank plasma was added. After being vortexed for 0.5 min, the mixture was added with 300 μL of acetonitrile solvent (containing the internal standard compound) so as to precipitate protein. The rest of the processing steps were the same as those for the undiluted samples.

[2] = Metabolic stability in liver microsomes (CD-1 mouse); type: in vitro ADME; settings: pH 7.4; CD-1 mouse liver microsomes 0.5 mg/mL, compound 1 μM, NADPH 1 mM, 37° C.
Procedure: (§1) 1. Source of liver microsomes: human liver microsomes (Corning 452117), CD-1 mouse liver microsomes (XENOTECH M1000)
(§2) 1. Formulation of 100 mM phosphate buffer solution (PBS): 7.098 g of Na2HPO4 was weighed and ultrasonically dissolved in 500 mL of pure water to form Solution A. 3.400 g of KH2PO4 was weighed and ultrasonically dissolved in 250 mL of pure water to form Solution B. Solution A was placed in a stirrer and Solution B was slowly added until the pH value reached 7.4, thus formulating 100 mM PBS buffer solution.
(§3) The reaction system was formulated according to Table 3 below.
(§4) 3. The reaction system was placed in a water bath at 37° C. and pre-incubated for 10 minutes. 40 μL of 10 mM NADPH solution (NADPH was dissolved in 100 mM phosphate buffer solution) was added into the reaction system, and the final concentration of NADPH was 1 mM. 40 μL of Phosphate buffer solution was used instead of the NADPH solution as a negative control. The negative control was used to rule out the influence caused by the chemical stability of the compounds per se.
(§5) 4. The reaction system was added with 4 μL of 100 μM the compound of the present disclosure and Verapamil (the positive control compound) (DMSO as the vehicle), so that the reaction was initiated. The final concentration of the compound was 1 μM.
(§6) 5. At 0.5, 15, 30, 45 and 60 minutes, after being well mixed in a vortex oscillator, 50 μL of the incubated samples were taken out respectively, and the reaction was terminated with ice acetonitrile (4-fold) containing an internal standard. The samples were centrifuged at 3220 g for 45 minutes. After the centrifugation, 90 μL of the supernatants were transferred to a sample plate and mixed well with 90 μL of ultrapure water for LC-MS/MS analysis.
(§7) All data were calculated by Microsoft Excel software. Peak areas were determined from the extracted ion chromatograms. The in-vitro half-life (t1/2) of the parent drug was determined by the linear fitting of the natural logarithm of the elimination percentage of the parent drug versus time.
(§8) The in-vitro half-life (t1/2) was calculated from the slope: […]

[3] = Metabolic stability in liver microsomes (human); type: in vitro ADME; settings: pH 7.4; Human being liver microsomes 0.5 mg/mL, compound 1 μM, NADPH 1 mM, 37° C.
Procedure: as §1, §2, §3, §4, §5, §6, §7, §8

WI-38 cells = test: Inhibition of human WI-38 embryonic lung cell proliferation (Cell-Titer Glo); type: cell-based; settings: Homo sapiens, 72 h, 3 days incubation, read-out: Anti-Proliferative Activity Against WI-38 cells IC50
How it was run: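 WI-38 cells in EMEM with 10% FBS, seeded 24 h, then exposed to 10-point 3-fold compound dilutions (0.25% DMSO final) for 3 days at 37 °C, 5% CO2. Viability from intracellular ATP by Cell-Titer Glo luminescence; % inhibition normalised to top/bottom signals and IC50 fitted.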

Row | Drug Exposure ([1]; oral dose 80 mg/kg) | Max. Drug Conc. ([1]; oral dose 80 mg/kg) | Peak Time of Drug Conc. ([1]; oral dose 80 mg/kg) | half-life ([1]; oral dose 80 mg/kg) | half-life at 1 μM [2] | half-life at 1 μM [3] | Drug Exposure ([1]; oral dose 30 mg/kg) | Max. Drug Conc. ([1]; oral dose 30 mg/kg) | Peak Time of Drug Conc. ([1]; oral dose 30 mg/kg) | half-life ([1]; oral dose 30 mg/kg) | Drug Exposure ([1]; oral dose 25 mg/kg) | Max. Drug Conc. ([1]; oral dose 25 mg/kg) | Peak Time of Drug Conc. ([1]; oral dose 25 mg/kg) | half-life ([1]; oral dose 25 mg/kg) | Structure (SMILES) | IC50 (WI-38 cells)
1 | 211.819 µg·h/mL | 14640 ng/mL | 2.3 h | 3.7 h | > 8.33 h | > 8.33 h |  |  |  |  |  |  |  |  | CC(C)OC(=O)Nc1ccc(-c2cnc([C@H]3CC[C@H](NC(=O)OC(C)C)CC3)s2)c(P(C)(C)=O)c1 [Example 1, isopropyl trans-N-[3-dimethylphosphoryl-4-[2-[4-(isopropoxycarbonylamino)cyclohexyl]thiazol-5-yl]phenyl]carbamate] | > 25 µM
2 |  |  |  |  | 7.2 h | > 8.33 h | 203.497 µg·h/mL | 17657 ng/mL | 2 h | 7.6 h |  |  |  |  | Cc1cc(Nc2ccc(-c3cnc([C@H]4CC[C@H](NC(=O)OC(C)C)CC4)s3)c(S(=O)(=O)C3CC3)c2)n[nH]1 [Example 48, isopropyl trans-(4-(5-(2-(cyclopropylsulfonyl)-4-((5-methyl-1H-pyrazol-3-yl)amino)phenyl)thiazol-2-yl)cyclohexyl)carbamate] | 15.6 µM
3 |  |  |  |  | 3.5 h | 5.32 h |  |  |  |  | 223.309 µg·h/mL | 13563 ng/mL | 5 h | 10 h | CC(C)OC(=O)NC1CCC(c2ncc(-c3ccc(Nc4ccc(F)cn4)cc3S(=N)(=O)C3CC3)s2)CC1 (stereo not drawn) [Example 81, isopropyl trans-N-[4-[5-[2-(cyclopropylsulfonimidoyl)]-4-[(5-fluoro-2-pyridyl)amino]phenyl]thiazol-2-yl]cyclohexyl]carbamate] | 14 µM
4 | 271.377 µg·h/mL | 15438 ng/mL | 2.8 h | 32 h | > 8.33 h | 7.95 h |  |  |  |  |  |  |  |  | CC(C)OC(=O)Nc1ccc(-c2cnc(C3CCC(NC(=O)OC(C)C)CC3)s2)c(S(=N)(=O)C(C)C)c1 (stereo not drawn) [Example 3, isopropyl trans-N-[4-[2-[4-(isopropoxycarbonylamino)cyclohexyl]thiazol-5-yl]-3-(isopropylsulfonimidoyl)phenyl]carbamate] | > 25 µM
